According to US10208045B2, “Aza-pyridone compounds and uses thereof” (Alios BioPharma, Inc., priority 2015, dated 2019):

Columns and labels:
[1] = target: Full length EN PA (influenza endonuclease) (Influenza A virus, UniProt P15659); experiment: EN PA FRET inhibition assay; format: biochemical; details: 50 Nm FRET probe, mean of a minimum of two independent experiments, read-out: Potency (IC50 class)
[2] = tested on: Influenza strain A549_A/WSN/33 (H1N1); experiment: Influenza antiviral assay (neuraminidase fluorescence readout in A549 or MDCK cells); format: cell-based; details: Influenza A virus, read-out: % Inhibition (EC50 class)

For `CCCN1C[C@H](C2c3ccccc3CCc3ccccc32)n2ncc(=O)c(OC(=O)C(C)C)c2C1=O` [Compound 26], the IC50 [1] was < 250 nM and the EC50 [2] was < 20000 nM.
`CC(C)[C@H](N)C(=O)OCOc1c2n(ncc1=O)[C@@H](C1c3cccc(F)c3CCc3c(F)cccc31)CN(C(C)C)C2=O` [Compound 39] was tested, and the IC50 [1] was < 250 nM and the EC50 [2] was < 20000 nM.
`O=C1NC[C@H](C(c2ccccc2)c2ccccc2)n2ncc(=O)c(O)c21` [Compound 10] was tested, and the IC50 [1] was < 250 nM and the EC50 [2] was < 20000 nM.
With `Cc1cccc(C(c2cccc(C)c2)[C@H]2CN(C(C)C)C(=O)c3c(O)c(=O)cnn32)c1` [Compound 37] the IC50 [1] was < 250 nM and the EC50 [2] was < 20000 nM.
For `CCCN1C[C@@H](C2c3ccccc3CCc3ccccc32)n2ncc(=O)c(O)c2C1=O` [Compound 20], the IC50 [1] was 250 to 1000 nM and the EC50 [2] was < 20000 nM.
With `CN1C[C@H]([C@@H](c2ccccc2)n2cc(I)c(I)n2)n2ncc(=O)c(O)c2C1=O` [Compound 7] the IC50 [1] was < 250 nM and the EC50 [2] was < 20000 nM.
For `CN1C[C@H]([C@H](c2ccccc2)n2cc(I)c(I)n2)n2ncc(=O)c(O)c2C1=O` [Compound 8], the IC50 [1] was < 250 nM and the EC50 [2] was < 20000 nM.
In the case of `CC(C)N1C[C@H](C(c2cccs2)c2cccs2)n2ncc(=O)c(O)c2C1=O` [Compound 9], the IC50 [1] is reported as < 250 nM and the EC50 [2] is reported as < 20000 nM.
With `CN1C[C@H]([C@H](c2ccccc2)n2cc(C#CC3CC3)c(C#CC3CC3)n2)n2ncc(=O)c(O)c2C1=O` [Compound 35] the IC50 [1] was ≥ 1000 nM and the EC50 [2] was < 20000 nM.
In the case of `CCCN1C[C@H](C2c3ccccc3CCc3ccccc32)n2ncc(=O)c(O)c2C1=O` [Compound 19], the IC50 [1] is reported as < 250 nM and the EC50 [2] is reported as < 20000 nM.
`CCN1C[C@H](C2c3ccccc3CCc3ccccc32)n2ncc(=O)c(OC(=O)C(C)C)c2C1=O` [Compound 28] was tested, and the IC50 [1] was < 250 nM.
For `CCn1cc([C@H](c2ccccc2)[C@H]2CN(C)C(=O)c3c(O)c(=O)cnn32)c2ccc(CO)cc21` [Compound 49], the IC50 [1] was ≥ 1000 nM.
`CCn1cc([C@@H](c2ccccc2)[C@H]2CN(C)C(=O)c3c(O)c(=O)cnn32)c2ccc(CO)cc21` [Compound 48] was tested, and the IC50 [1] was ≥ 1000 nM.
Work on `CN1C[C@H]([C@H](c2ccccc2)n2cc(C#CC3(O)CCC3)c(C#CC3(O)CCC3)n2)n2ncc(=O)c(O)c2C1=O` [Compound 46] yielded an IC50 [1] of 250 to 1000 nM and an EC50 [2] of 20000 to 100000 nM.
For `CCCN1C[C@H](C2c3ccccc3CCc3ccccc32)n2ncc(=O)c(OC(C)=O)c2C1=O` [Compound 25], the IC50 [1] was < 250 nM and the EC50 [2] was < 20000 nM.
In the case of `CCCN1C[C@H](C2c3cccc(Cl)c3CCc3c(Cl)cccc32)n2ncc(=O)c(O)c2C1=O` [Compound 99], the IC50 [1] is reported as < 250 nM and the EC50 [2] is reported as < 20000 nM.
For `CC(=O)Oc1c2n(ncc1=O)[C@@H](C(c1cccc(Cl)c1)c1cccc(Cl)c1)CN(C(C)C)C2=O` [Compound 107], the IC50 [1] was < 250 nM and the EC50 [2] was < 20000 nM.
In the case of `O=C1c2c(O)c(=O)cnn2[C@@H](C(c2ccccc2)c2ccccc2)CN1Cc1ccccc1` [Compound 38], the IC50 [1] is reported as < 250 nM and the EC50 [2] is reported as < 20000 nM.
For `CC(C)N1C[C@H](C(c2ccccc2)c2ccccc2)n2ncc(=O)c(O[C@@H]3OC(C(=O)O)[C@@H](O)C(O)C3O)c2C1=O` (stereo partly drawn) [Compound 4], the IC50 [1] was < 250 nM and the EC50 [2] was < 20000 nM.
`CC(=O)Oc1c2n(ncc1=O)[C@@H](C1c3ccccc3CCc3ccccc31)CN(C(C)C)C2=O` [Compound 24] was tested, and the IC50 [1] was < 250 nM and the EC50 [2] was < 20000 nM.
`CC(C)N1C[C@H]([C@@H](c2ccccc2)n2cc(C#CC3CC3)c(C#CC3CC3)n2)n2ncc(=O)c(O)c2C1=O` [Compound 33] was tested, and the IC50 [1] was 250 to 1000 nM and the EC50 [2] was < 20000 nM.
With `CC(C)OC(=O)OCOc1c2n(ncc1=O)[C@@H](C1c3cccc(F)c3CCc3c(F)cccc31)CN(C(C)C)C2=O` [Compound 41] the IC50 [1] was < 250 nM and the EC50 [2] was < 20000 nM.
In the case of `CCCN1C[C@H](C2c3ccc(Cl)cc3CCc3cc(Cl)ccc32)n2ncc(=O)c(O)c2C1=O` [Compound 104], the IC50 [1] is reported as < 250 nM and the EC50 [2] is reported as < 20000 nM.
For `C#Cc1cn([C@@H](c2ccccc2)[C@H]2CN(C)C(=O)c3c(O)c(=O)cnn32)nc1C#C` [Compound 16], the IC50 [1] was < 250 nM and the EC50 [2] was < 20000 nM.
In the case of `CC(=O)Oc1c2n(ncc1=O)[C@@H](C1c3cccc(F)c3CCc3c(F)cccc31)CN(C(C)C)C2=O` [Compound 3], the IC50 [1] is reported as < 250 nM and the EC50 [2] is reported as < 20000 nM.
For `CCCN1C[C@H](C2c3ccc(F)cc3CCc3cc(F)ccc32)n2ncc(=O)c(O)c2C1=O` [Compound 102], the IC50 [1] was < 250 nM and the EC50 [2] was < 20000 nM.
`CN1C[C@H]([C@@H](c2ccccc2)n2cc(C#CC3CC3)c(C#CC3CC3)n2)n2ncc(=O)c(O)c2C1=O` (single isomer, unassigned) [Compound 13] was tested, and the IC50 [1] was < 250 nM and the EC50 [2] was < 20000 nM.
In the case of `CN1C[C@H]([C@H](c2ccccc2)n2cc(C#CCO)c(C#CCO)n2)n2ncc(=O)c(O)c2C1=O` [Compound 36], the IC50 [1] is reported as < 250 nM and the EC50 [2] is reported as < 20000 nM.
`CCCN1C[C@H](C2c3cccc(F)c3CCc3c(F)cccc32)n2ncc(=O)c(O)c2C1=O` [Compound 21] was tested, and the IC50 [1] was < 250 nM and the EC50 [2] was < 20000 nM.
For `CC(C)OC(=O)Oc1c2n(ncc1=O)[C@@H](C1c3cccc(F)c3CCc3c(F)cccc31)CN(C(C)C)C2=O` [Compound 30], the IC50 [1] was < 250 nM and the EC50 [2] was < 20000 nM.
In the case of `CCCN1C[C@@H](C2c3cccc(F)c3CCc3c(F)cccc32)n2ncc(=O)c(O)c2C1=O` [Compound 22], the IC50 [1] is reported as ≥ 1000 nM and the EC50 [2] is reported as < 20000 nM.
For `CC(C)[C@H](N)C(=O)OCOc1c2n(ncc1=O)[C@@H](C1c3ccccc3CCc3ccccc31)CN(C(C)C)C2=O` [Compound 40], the IC50 [1] was < 250 nM and the EC50 [2] was < 20000 nM.
For `CC(C)COC(=O)Oc1c2n(ncc1=O)[C@@H](C1c3cccc(F)c3CCc3c(F)cccc31)CN(C(C)C)C2=O` [Compound 31], the IC50 [1] was < 250 nM and the EC50 [2] was < 20000 nM.
With `CC(C)C(=O)Oc1c2n(ncc1=O)[C@@H](C1c3ccccc3CCc3ccccc31)CN(C(C)C)C2=O` [Compound 23] the IC50 [1] was < 250 nM and the EC50 [2] was < 20000 nM.
`CCCN1C[C@H](C(c2cccc(F)c2)c2cccc(F)c2)n2ncc(=O)c(OC(C)=O)c2C1=O` (single isomer, unassigned) [Compound 1] was tested, and the IC50 [1] was < 250 nM and the EC50 [2] was < 20000 nM.
In the case of `C#Cc1cccc(C(c2cccc(C#C)c2)C2CN(C(C)C)C(=O)c3c(O)c(=O)cnn32)c1` (stereo not drawn) [Compound 11], the IC50 [1] is reported as < 250 nM and the EC50 [2] is reported as < 20000 nM.
With `CC(C)OC(=O)OCOc1c2n(ncc1=O)[C@@H](C(c1ccccc1)c1ccccc1)CN(C(C)C)C2=O` [Compound 2] the IC50 [1] was ≥ 1000 nM and the EC50 [2] was < 20000 nM.
`CN1C[C@H]([C@@H](c2ccccc2)n2cc(C#CCO)c(C#CCO)n2)n2ncc(=O)c(O)c2C1=O` (single isomer, unassigned) [Compound 14] was tested, and the IC50 [1] was < 250 nM and the EC50 [2] was < 20000 nM.
For `CCCN1C[C@H](C(c2cccc(Cl)c2)c2cccc(Cl)c2)n2ncc(=O)c(OC(C)=O)c2C1=O` [Compound 54], the IC50 [1] was < 250 nM and the EC50 [2] was < 20000 nM.
`[2H]C([2H])([2H])C([2H])(N1C[C@H](C(c2ccccc2)c2ccccc2)n2ncc(=O)c(O)c2C1=O)C([2H])([2H])[2H]` [Compound 17] was tested, and the IC50 [1] was < 250 nM and the EC50 [2] was < 20000 nM.
For `CC(C)N1C[C@H](C2c3ccc(F)cc3CCc3cc(F)ccc32)n2ncc(=O)c(O)c2C1=O` [Compound 101], the IC50 [1] was < 250 nM and the EC50 [2] was < 20000 nM.
With `CC(C)N1C[C@H](C2c3ccc(Cl)cc3CCc3cc(Cl)ccc32)n2ncc(=O)c(O)c2C1=O` [Compound 103] the IC50 [1] was < 250 nM and the EC50 [2] was < 20000 nM.
`CCCCN1C[C@H](C(c2ccccc2)c2ccccc2)n2ncc(=O)c(O)c2C1=O` [Compound 18] was tested, and the IC50 [1] was < 250 nM and the EC50 [2] was < 20000 nM.
In the case of `C#Cc1cccc([C@@H](c2ccccc2)[C@H]2CN(C(C)C)C(=O)c3c(O)c(=O)cnn32)c1` [Compound 15], the IC50 [1] is reported as < 250 nM and the EC50 [2] is reported as < 20000 nM.
`CN1CC(C(c2ccccc2)c2cn(C)c3cc(F)ccc23)n2ncc(=O)c(O)c2C1=O` (stereo not drawn) [Compound 5] was tested, and the IC50 [1] was < 250 nM and the EC50 [2] was < 20000 nM.
In the case of `CCn1cc([C@@H](c2ccccc2)[C@H]2CN(C)C(=O)c3c(O)c(=O)cnn32)c2ccc(Br)cc21` [Compound 6], the IC50 [1] is reported as 250 to 1000 nM and the EC50 [2] is reported as < 20000 nM.
In the case of `CN1C[C@H](C2c3cccc(Cl)c3CCc3c(Cl)cccc32)n2ncc(=O)c(O)c2C1=O` [Compound 100], the IC50 [1] is reported as < 250 nM and the EC50 [2] is reported as < 20000 nM.
In the case of `CCCN1C[C@H](C2c3cccc(F)c3CCc3c(F)cccc32)n2ncc(=O)c(OC(C)=O)c2C1=O` [Compound 29], the IC50 [1] is reported as < 250 nM and the EC50 [2] is reported as < 20000 nM.
In the case of `CC(C)N1C[C@H]([C@@H](c2ccccc2)n2cc(C#CCO)c(C#CCO)n2)n2ncc(=O)c(O)c2C1=O` [Compound 34], the IC50 [1] is reported as < 250 nM and the EC50 [2] is reported as < 20000 nM.
For `CC#Cc1cn([C@@H](c2ccccc2)[C@H]2CN(C)C(=O)c3c(O)c(=O)cnn32)nc1C#CC` [Compound 12], the IC50 [1] was 250 to 1000 nM and the EC50 [2] was < 20000 nM.
`CCN1C[C@H](C2c3ccccc3CCc3ccccc32)n2ncc(=O)c(OC(C)=O)c2C1=O` [Compound 27] was tested, and the IC50 [1] was < 250 nM and the EC50 [2] was < 20000 nM.
